Experimental data as given in patent publication US5300501A, “Peptidyl derivatives” (Celltech Limited, priority 1990, dated 1994).

Experiments:
Format in all cases: biochemical
Collagenase = target: T1, Collagenase (Homo sapiens, UniProt P03956); test: Enzyme inhibition assay (peptide substrate Dnp-Pro-Leu-Gly-Leu-Trp-Ala-D-Arg-NH2, Trp fluorescence), collagenase; conditions: pH 7.5, overnight, Ki (app) assumed to approximate true Ki
T1 sequence (P03956 100-469): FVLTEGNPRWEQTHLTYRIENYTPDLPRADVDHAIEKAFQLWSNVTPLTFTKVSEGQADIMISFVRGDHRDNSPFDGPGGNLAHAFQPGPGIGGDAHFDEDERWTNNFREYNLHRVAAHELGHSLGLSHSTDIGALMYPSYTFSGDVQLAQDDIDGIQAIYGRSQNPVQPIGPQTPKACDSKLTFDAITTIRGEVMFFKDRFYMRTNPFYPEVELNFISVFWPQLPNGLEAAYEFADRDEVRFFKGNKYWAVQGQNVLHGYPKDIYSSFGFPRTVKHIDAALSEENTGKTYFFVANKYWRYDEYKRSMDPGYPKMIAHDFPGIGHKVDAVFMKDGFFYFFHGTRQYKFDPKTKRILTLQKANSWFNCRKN
Source text: (§1) The enzymes cleave at the Gly-Leu bond which can be followed fluorimetrically by measuring the increase in Trp fluorescence emission associated with the removal of the quenching dinitrophenol (Dnp) group.
(§2) Ki values can be established using the equation for tight-being inhibition: [formula] where Vo is the initial rate of reaction in the absence of inhibitor, Vi is the initial rate in the presence of inhibitor, [E] is the total enzyme concentration and [I] the total inhibitor concentration in the reaction mixture.
(§3) For stromelysin and collagenase, Ki (app) was assumed to approximate to the true Ki as [S]<<Km for the substrate hydrolysis. For gelatinase the Ki was determined by performing the analyses at several substrate concentrations. A plot of Ki (app) vs. [S] then gave the true Ki as the value of the y-axis intercept.

Stromelysin-1 = Stromelysin-1 (Homo sapiens, UniProt P08254); test: Enzyme inhibition assay (peptide substrate Dnp-Pro-Leu-Gly-Leu-Trp-Ala-D-Arg-NH2, Trp fluorescence), stromelysin; conditions: pH 7.5, overnight, Ki (app) assumed to approximate true Ki
Source text: as §1, §2, §3

Gelatinase-72KD = target: T2, Gelatinase-72KD (Homo sapiens, UniProt P08253); test: Enzyme inhibition assay (peptide substrate Dnp-Pro-Leu-Gly-Leu-Trp-Ala-D-Arg-NH2, Trp fluorescence), gelatinase; conditions: pH 7.5, overnight; true Ki from plot of Ki (app) vs. [S], y-axis intercept
T2 sequence (P08253 110-660): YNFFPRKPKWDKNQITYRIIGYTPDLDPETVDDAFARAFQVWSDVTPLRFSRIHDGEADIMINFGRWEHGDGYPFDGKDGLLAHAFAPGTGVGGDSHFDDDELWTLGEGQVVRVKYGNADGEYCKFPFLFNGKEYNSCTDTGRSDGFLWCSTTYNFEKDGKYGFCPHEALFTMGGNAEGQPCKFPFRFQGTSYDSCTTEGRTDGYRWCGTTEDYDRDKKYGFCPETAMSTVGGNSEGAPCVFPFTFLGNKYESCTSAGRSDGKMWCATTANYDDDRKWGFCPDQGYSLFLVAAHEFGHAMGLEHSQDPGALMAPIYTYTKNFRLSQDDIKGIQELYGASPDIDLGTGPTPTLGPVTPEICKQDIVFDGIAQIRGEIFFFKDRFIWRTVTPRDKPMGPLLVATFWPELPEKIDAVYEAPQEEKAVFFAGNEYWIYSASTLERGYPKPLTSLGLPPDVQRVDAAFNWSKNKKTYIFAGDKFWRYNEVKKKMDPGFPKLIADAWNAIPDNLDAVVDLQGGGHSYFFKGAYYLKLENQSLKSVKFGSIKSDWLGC
Source text: as §1, §2, §3

[1] = value printed in μM in the cell

Chain of Stromelysin-1 (P08254 100-477, species assumed): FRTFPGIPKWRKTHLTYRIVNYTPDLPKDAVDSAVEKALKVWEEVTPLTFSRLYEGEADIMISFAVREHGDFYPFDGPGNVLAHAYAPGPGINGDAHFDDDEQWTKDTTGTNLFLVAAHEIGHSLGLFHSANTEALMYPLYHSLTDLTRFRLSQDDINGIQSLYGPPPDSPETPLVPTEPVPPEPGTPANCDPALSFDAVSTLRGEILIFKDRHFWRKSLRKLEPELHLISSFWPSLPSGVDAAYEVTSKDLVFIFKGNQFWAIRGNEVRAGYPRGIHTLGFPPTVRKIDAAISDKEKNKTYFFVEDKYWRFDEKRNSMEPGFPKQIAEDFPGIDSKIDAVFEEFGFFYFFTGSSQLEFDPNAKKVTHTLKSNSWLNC

| Structure (SMILES) | Ki (Collagenase) [µM] | Ki (Stromelysin-1) [µM] | Ki (Gelatinase-72KD) [nM] | Ki (Collagenase; [1]) [µM] | Ki (Stromelysin-1; [1]) [µM] |
| --- | --- | --- | --- | --- | --- |
| NS(=O)(=O)c1ccc(CCNC(=O)[C@H](CC2CCCCC2)NC(=O)[C@H](CCCc2ccccc2)CC(=O)NO)cc1 [Example 6, [4-(N-Hydroxyamino)-2R-phenylpropylsuccinyl]-L-β-cyclohexyalanine-N-(2-(p-sulphonamidophenyl)ethyl) amide] | 0.15 | 0.00592 | 0.025 | – | – |
| O=C(C[C@@H](CCCc1ccccc1)C(=O)N[C@@H](CC1CCCCC1)C(=O)NCCCN1CCOCC1)NO [Example 12, [4-(N-Hydroxyamino)-2R-phenylpropylsuccinyl]-L-β-cyclohexylalanine-N-[3(4-morpholinyl)propyl] amide] | 0.21 | 0.0248 | 0.14 | – | – |
| O=C(O)C[C@@H](CCCc1ccccc1)C(=O)N[C@@H](CC1CCCCC1)C(=O)NCCc1ccccc1 [Example 15, [4-Hydroxy-2(R)-(3-phenylpropyl)succinnyl]-L-β-cyclohexylalanine-(N-2-phenylethyl) amide] | – | 0.842 | – | – | – |
| COC(=O)CCNC(=O)[C@H](CC1CCCCC1)NC(=O)[C@H](CCCc1ccccc1)CC(=O)O [Example 16, [4-Hydroxy-2(R)-(3-phenylpropyl)succinyl]-L-β-cyclohexylalanine-β-alanine methyl ester] | – | – | 6 | 57 | 1.47 |
